Patent US11331299B2, “Medicinal use of serrulatane diterpenes” (The University of Sydney, priority 2016, dated 2022)
Where two headings read alike, the source gives them in different places.

Tested on: 280 human cancer cell lines
Assay: OncoPanel cell proliferation assay (10-day)
Format: cell-based
Settings: Homo sapiens; for GI50: read-out: Cell Count GI50; for IC50: read-out: Cell Count IC50; for EC50: read-out: Cell Count EC50
[1] = KHOS-240S, Soft Tissue - Osteosarcoma
[2] = ME-180, ME-180, Female GU - Ovary
[3] = MG-63, MG-63, Soft Tissue - Osteosarcoma
[4] = MHH-PREB-1, MHH-PREB-1, Leukemia
[5] = MIA PaCa-2, Mia PaCa-2, Pancreas
[6] = MS751, MS751, Female GU - Ovary
[7] = Malme-3M, MALME3M, Skin (Melanoma)

Q: What does the source list for `CC(C)=CCC[C@@H]1C(O)Oc2c(C)cc(O)c3c2[C@H]1CC[C@H]3C` (some centres unmarked) [Compound 2, 5,18-epoxyserrulat-14-en-8,18-diol]?
A: GI50 [1]: 4.58 µM; IC50 [1]: 4.59 µM; EC50 (KLE, Female GU - Uterus): 26.3 µM; GI50 (KLE, Female GU - Uterus): 20.5 µM; IC50 (KLE, Female GU - Uterus): 26.3 µM; EC50 (KPL-1, KPL-1, Breast): 4.7 µM; GI50 (KPL-1, KPL-1, Breast): 4.7 µM; IC50 (KPL-1, KPL-1, Breast): 4.73 µM; EC50 (KU812, KU812, Leukemia): 6.52 µM; GI50 (KU812, KU812, Leukemia): 5.66 µM; IC50 (KU812, KU812, Leukemia): 6.52 µM; EC50 (L-428, L-428, Lymphoma): 8.87 µM; GI50 (L-428, L-428, Lymphoma): 8.83 µM; IC50 (L-428, L-428, Lymphoma): 8.87 µM; EC50 (LNCaP, Prostate): 0.86 µM; GI50 (LNCaP, Prostate): 0.28 µM; IC50 (LNCaP, Prostate): 0.86 µM; EC50 (LS-123, LS123, Colon): 6.57 µM; GI50 (LS-123, LS123, Colon): 13.4 µM; IC50 (LS-123, LS123, Colon): 18.4 µM; EC50 (LS-411N, LS411N, Colon): 23.9 µM; GI50 (LS-411N, LS411N, Colon): 23.4 µM; IC50 (LS-411N, LS411N, Colon): 23.9 µM; EC50 (LS-1034, LS1034, Colon): 12.7 µM; GI50 (LS-1034, LS1034, Colon): 12 µM; IC50 (LS-1034, LS1034, Colon): 12.7 µM; EC50 (M059J, CNS - Glioma): 9.98 µM; GI50 (M059J, CNS - Glioma): 14.2 µM; IC50 (M059J, CNS - Glioma): 15.8 µM; EC50 (MC116, MC116, Lymphoma): 13.8 µM; GI50 (MC116, MC116, Lymphoma): 13.8 µM; IC50 (MC116, MC116, Lymphoma): 13.8 µM; EC50 (MC-IXC, CNS - Neuroblastoma): 16.9 µM; GI50 (MC-IXC, CNS - Neuroblastoma): 16.9 µM; IC50 (MC-IXC, CNS - Neuroblastoma): 16.9 µM; EC50 (MCF7, MCF7, Breast): 10.4 µM; GI50 (MCF7, MCF7, Breast): 9.96 µM; IC50 (MCF7, MCF7, Breast): 10.4 µM; EC50 (MDA-MB-231, MDA MB 231, Breast): 4.39 µM; GI50 (MDA-MB-231, MDA MB 231, Breast): 4.36 µM; IC50 (MDA-MB-231, MDA MB 231, Breast): 4.39 µM; EC50 (MDA-MB-436, MDA-MB-436, Breast): 9.72 µM; GI50 (MDA-MB-436, MDA-MB-436, Breast): 9.73 µM; IC50 (MDA-MB-436, MDA-MB-436, Breast): 9.77 µM; EC50 (MDA-MB-453, MDA MB 453, Breast): 3.68 µM; GI50 (MDA-MB-453, MDA MB 453, Breast): 3.65 µM; IC50 (MDA-MB-453, MDA MB 453, Breast): 3.69 µM; EC50 (MDA-MB-468, MDA MB 468, Breast): 8.07 µM; GI50 (MDA-MB-468, MDA MB 468, Breast): 8 µM; IC50 (MDA-MB-468, MDA MB 468, Breast): 8.08 µM; EC50 [2]: > 30 µM; GI50 [2]: > 30 µM; IC50 [2]: > 30 µM; EC50 (MEG-01, MEG01, Leukemia): 13.8 µM; GI50 (MEG-01, MEG01, Leukemia): 13.7 µM; IC50 (MEG-01, MEG01, Leukemia): 13.8 µM; EC50 (MES-SA, Soft Tissue - Sarcoma): 9.26 µM; GI50 (MES-SA, Soft Tissue - Sarcoma): 9.22 µM; IC50 (MES-SA, Soft Tissue - Sarcoma): 9.26 µM; EC50 [3]: > 30 µM; GI50 [3]: > 30 µM; IC50 [3]: > 30 µM; EC50 [4]: 7.85 µM; GI50 [4]: 7.85 µM; IC50 [4]: 7.85 µM; EC50 [5]: 16.3 µM; GI50 [5]: 16.2 µM; IC50 [5]: 16.3 µM; EC50 (MOLT-3, MOLT-3, Leukemia): 1.27 µM; GI50 (MOLT-3, MOLT-3, Leukemia): 1.26 µM; IC50 (MOLT-3, MOLT-3, Leukemia): 1.27 µM; EC50 (MOLT-16, MOLT-16, Leukemia): 13.3 µM; GI50 (MOLT-16, MOLT-16, Leukemia): 13.3 µM; IC50 (MOLT-16, MOLT-16, Leukemia): 13.3 µM; EC50 [6]: 7.55 µM; GI50 [6]: 8.72 µM; IC50 [6]: 8.78 µM; EC50 (MT-3, Colon): 16.9 µM; GI50 (MT-3, Colon): 16.8 µM; IC50 (MT-3, Colon): 16.9 µM; EC50 (MV4-11, MV-4-11, Leukemia): 8.56 µM; GI50 (MV4-11, MV-4-11, Leukemia): 8.52 µM; IC50 (MV4-11, MV-4-11, Leukemia): 8.56 µM; EC50 (MX1, Leukemia): 10.8 µM; GI50 (MX1, Leukemia): 10.8 µM; IC50 (MX1, Leukemia): 10.8 µM; EC50 [7]: 19.8 µM; GI50 [7]: 17.3 µM; IC50 [7]: 19.8 µM; EC50 (MeWo, Skin (Melanoma)): 9.45 µM; GI50 (MeWo, Skin (Melanoma)): 9.91 µM; IC50 (MeWo, Skin (Melanoma)): 9.97 µM; EC50 (NALM-6, NALM-6, Leukemia): 1.67 µM; GI50 (NALM-6, NALM-6, Leukemia): 1.68 µM; IC50 (NALM-6, NALM-6, Leukemia): 1.68 µM; EC50 (NAMALWA, Lymphoma): 5.71 µM; GI50 (NAMALWA, Lymphoma): 5.7 µM; IC50 (NAMALWA, Lymphoma): 5.71 µM; EC50 (NCI-H69, NCI-H69, Lung - SCLC): 16.2 µM; GI50 (NCI-H69, NCI-H69, Lung - SCLC): 14.9 µM; IC50 (NCI-H69, NCI-H69, Lung - SCLC): 16.2 µM
